Tests used:
[1] = system: IFN induction in virus-stimulated THP1 cells; experiment: Human cGAS cell assay, baculovirus-stimulated THP1-Dual cells, Lucia luciferase reporter (THP1(vir) IC50); assay type: cell-based; details: Homo sapiens, THP-1;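 further: IRF-dependent luminescence, 8 concentrations up to 10 µM in 1% DMSO, 0% = unstimulated cells, 100% = DMSO plus virus, counter assay stimulated with cGAMP downstream of cGAS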
Source text: THP1-Dual™ cells (InvivoGen #thpd-nfis) expressing IRF dependent Lucia luciferase reporter were used as basis for both assays. For the detection of cellular cGAS activity cells were stimulated by a baculovirus (pFastbac-1, Invitrogen, no coding insert) infection that delivers the cGAS enzyme stimulating double-stranded DNA (measurement of THP1(vir) IC50).
(§1) For the counter assay, cells were stimulated by cGAMP (SigmaAldrich #SML1232) to activate the identical pathway independent and directly downstream of cGAS (measurement of THP1(cAMP) IC50). Pathway activity was monitored by measuring the Lucia luciferase activity induced by either DNA stimulated cGAS enzyme activity (measurement of THP1^(vir) IC50) or by cGAMP directly (measurement of THP1(cAMP) IC50, counter assay).
Typically, 8 concentrations were used with the highest concentration at 10 μM in the final assay volume followed by ˜1:5 dilution steps. DMSO concentration was set to 1% in the final assay volume. The 384 well assay plate contained 21 test compounds (column 1-22), and DMSO in column 23 and 24.
The baculovirus solution was then added 1:200 (may have varied according to virus batch) to the cells (measurement of THP1(vir) IC50).
(§2) 30 μL of the cell/virus-mix were added to each well of the compound plate from column 1-23 via MultiDrop Combi dispenser (5000 cells/well). In column 24, 30 μl/5000 cells/well without virus were added as a low control.
(§3) The plates were then incubated for 18 h at 37° C. in a humidified incubator.
(§4) Following that, 15 μL of QuantiLuc detection reagent (InvivoGen #rep-qlcg5) were added to each well using a MultiDrop Combi. Measurement was done immediately after the addition using an EnVision reader (US-luminescence read-mode).
Data Evaluation and Calculation:
(§5) For data evaluation and calculation, the measurement of the low control was set as 0% control and the measurement of the high control was set as 100% control. The IC50 values were calculated using the standard 4 parameter logistic regression formula. Calculation: [y=(a−d)/(1+(x/c)^b)+d], a=low value, d=high value; x=conc M; c=1C50 M; b=slope

[2] = system: IFN induction in cGAMP-stimulated THP1 cells; experiment: cGAMP stimulated counter cell assay, THP1-Dual cells, Lucia luciferase reporter (THP1(cGAMP) IC50); assay type: cell-based; details: Homo sapiens, THP-1, THP1-Dual cells stimulated with 10 μM cGAMP;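 further: IRF-driven Lucia luciferase luminescence after 18 h at 37° C, compound series topping at 10 µM with 1% DMSO, unstimulated wells as 0% and DMSO wells as 100%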
Source text: 6.2 Method: Human cGAS Cell Assay and cGAMP Stimulated Counter Cell Assay (THP1(vir) IC50 and THP1(cGAMP) IC50)
THP1-Dual™ cells (InvivoGen #thpd-nfis) expressing IRF dependent Lucia luciferase reporter were used as basis for both assays.
as §1
Compounds were delivered in 10 mM DMSO solution, serially diluted and transferred to the 384 well assay plate (Greiner #781201) using an Echo acoustic dispenser. Typically, 8 concentrations were used with the highest concentration at 10 μM in the final assay volume followed by ˜1:5 dilution steps. DMSO concentration was set to 1% in the final assay volume. The 384 well assay plate contained 21 test compounds (column 1-22), and DMSO in column 23 and 24.
as §2, §3, §4
Data Evaluation and Calculation:
as §5

[3] = system: IFN induction in dsDNA-stimulated human whole blood; experiment: Human whole blood assay, dsDNA transfection, IFNα2a production (hWB IC50); assay type: cell-based;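 further: cGAS pathway activity, IFNα2a in plasma by MSD immunoassay after 22 h at 37 °C, 8 concentrations up to 10 µM in 0.1% DMSO, DMSO controls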
Procedure: For the detection of cellular cGAS activity human whole blood was stimulated by transfection with double stranded DNA. Pathway activity was monitored by measuring the IFNα2α production.
Typically, 8 concentrations were used with the highest concentration at 10 μM in the final assay volume followed by ˜1:5 dilution steps. DMSO concentration was set to 0.1% in the final assay volume. The 96-well assay plate contained 10 test compounds, and DMSO in control wells.
Whole blood was kept at room temperature for a maximum of 3 hours after collection until use in the assay.
160 μl of the whole blood samples was transferred to each well of the 96-well assay plates filled with compound/OptiMEM. All assay plates were prepared as duplicates with blood from different donors. Blood plates were kept at room temperature for 60 minutes and continuous shaking with 450 rpm, covered with the lid, but not sealed.
20 μl OptiMEM and 9.6:1 Fugene was added to all low control wells.
After covering assay plates with aera seals and the lid, blood plates were kept at room temperature for 30 minutes and continuous shaking with 450 rpm, followed by an overnight incubation of 22 h at 37° C. in the incubator, without shaking.
U-Plex MSD GOLD 96-well Small Spot Strepavidin SECTOR Plates (Meso Scale Diagnostics #L45SA-5) were coated with 25 μl diluted capture antibody. Coated plates were incubated for 60 min at room temperature under continuous shaking at 700 rpm. MSD IFNα-2a plates were washed three times with 150 μl wash buffer (1×HBSS, 0.05% Tween).
After blocking the plates with 100 μl block solution/well (1×HBSS with 0.2% Tween, 2% BSA) for 60 min at room temperature and continuous shaking at 700 rpm, plates were emptied as dry as possible by dumping just before continuing with the human plasma.
Whole Blood assay plates were centrifuged at 1600 rpm for 10 minutes. 25 μl of supernatant was transferred with a pipetting robot from each whole blood plate to the corresponding IFNα-2a plate.
Plates were sealed with microplate seals and kept at room temperature again under continuous shaking at 700 rpm for two hours.
Next MSD IFNα-2a plates were washed three times with 150 μl wash buffer (1×HBSS, 0.05% Tween), before adding 25 μl MSD SULFO-TAG IFNα-2a Antibody solution (1:100 diluted in Diluent 3 (Meso Scale Diagnostics #R50AP-2) to each well of the plates.
Afterwards plates were sealed with microplate seals and kept at room temperature again under continuous shaking at 700 rpm for two hours. Finally, MSD IFNα-2α plates were washed three times with 150 μl wash buffer (1×HBSS, 0.05% Tween). 150 μl 2× Read buffer was added to each well and plates were immediately measured with the MSD Sector S600 Reader using the vendor barcode.
For data evaluation and calculation, % control calculation of each well was based on the mean of high (DNA stimulated control) and mean of low (unstimulated control) controls by using the following formula: [counts(sample)−counts(low))/(counts(high)−counts(low))]*100
The IC50 values were calculated using the standard 4 parameter logistic regression formula. Calculation: [y=(a−d)/(1+(x/c)^b)+d], a=low value, d=high value; x=conc M; c=1C50 M; b=slope

cGAS = details: as disclosed on page 45 of WO 2020/142729; read-out: biochemical (in vitro) IC50-value group; cited from earlier work

With Cc1nc(N2C[C@@H](Cc3nn[nH]n3)C[C@H]2C(=O)O)c2oc3ccccc3c2n1 [Example 25, reference compound] the IC50 [1] was 17 µM, the IC50 ([1]; baculovirus-stimulated THP1-Dual cells, 18 h) was > 17 µM and the IC50 [2] was > 17 µM. For the same compound, the IC50 [3] was > 9.99 µM and the IC50 (cGAS) was < 0.1 µM.
